Assay results: patent US6352958B1, “Cycloimido-substituted benzofused heterocyclic herbicides” (FMC Corporation, priority 1997, dated 2002)

What was measured:
Type in all cases: in vivo
[1] = test system: velvetleaf (Abutilon theophrasti); assay: Preemergence herbicidal activity, velvetleaf; conditions: Rate of Application 0.3 Kg/Ha, examined after 12-17 days
[2] = test system: morningglory (Ipomea lacunosa or Ipomea hederacea); assay: Postemergence herbicidal activity, morningglory; conditions: rate of application 0.3 Kg/Ha, rated after 12-17 days
[3] = test system: soybean (Glycine max var. Winchester); assay: Preemergence herbicidal activity, soybean; conditions: Rate of Application 0.3 Kg/Ha, examined after 12-17 days
[4] = test system: velvetleaf (Abutilon theophrasti); assay: Postemergence herbicidal activity, velvetleaf; conditions: rate of application 0.3 Kg/Ha, rated after 12-17 days
[5] = test system: blackgrass (Aloepecurus myosuroides); assay: Preemergence herbicidal activity, blackgrass; conditions: Rate of Application 0.3 Kg/Ha, examined after 12-17 days
[6] = test system: field corn (Zea mays var. Pioneer 3732); assay: Preemergence herbicidal activity, corn; conditions: Rate of Application 0.3 Kg/Ha, examined after 12-17 days
[7] = test system: wheat (Triticum aestivum var. Lew); assay: Preemergence herbicidal activity, wheat; conditions: Rate of Application 0.3 Kg/Ha, examined after 12-17 days
[8] = test system: blackgrass (Aloepecurus myosuroides); assay: Postemergence herbicidal activity, blackgrass; conditions: rate of application 0.3 Kg/Ha, rated after 12-17 days
[9] = test system: common cocklebur (Xanthium strumarium L.); assay: Postemergence herbicidal activity, cocklebur; conditions: rate of application 0.3 Kg/Ha, rated after 12-17 days
[10] = test system: green foxtail (Setaria viridis); assay: Preemergence herbicidal activity, green foxtail; conditions: Rate of Application 0.3 Kg/Ha, examined after 12-17 days
[11] = test system: Johnsongrass (Sorghum halepense); assay: Preemergence herbicidal activity, johnsongrass; conditions: Rate of Application 0.3 Kg/Ha, examined after 12-17 days
[12] = test system: common chickweed (Stellaria media); assay: Postemergence herbicidal activity, chickweed; conditions: rate of application 0.3 Kg/Ha, rated after 12-17 days
[13] = test system: green foxtail (Setaria viridis); assay: Postemergence herbicidal activity, green foxtail; conditions: rate of application 0.3 Kg/Ha, rated after 12-17 days
[14] = test system: morningglory (Ipomea lacunosa or Ipomea hederacea); assay: Preemergence herbicidal activity, morningglory; conditions: Rate of Application 0.3 Kg/Ha, examined after 12-17 days
[15] = test system: common cocklebur (Xanthium strumarium L.); assay: Preemergence herbicidal activity, cocklebur; conditions: Rate of Application 0.3 Kg/Ha, examined after 12-17 days
[16] = test system: wheat (Triticum aestivum var. Lew); assay: Postemergence herbicidal activity, wheat; conditions: rate of application 0.3 Kg/Ha, rated after 12-17 days
[17] = test system: Johnsongrass (Sorghum halepense); assay: Postemergence herbicidal activity, johnsongrass; conditions: rate of application 0.3 Kg/Ha, rated after 12-17 days
[18] = test system: common chickweed (Stellaria media); assay: Preemergence herbicidal activity, chickweed; conditions: Rate of Application 0.3 Kg/Ha, examined after 12-17 days
[19] = test system: soybean (Glycine max var. Winchester); assay: Postemergence herbicidal activity, soybean; conditions: rate of application 0.3 Kg/Ha, rated after 12-17 days
[20] = test system: field corn (Zea mays var. Pioneer 3732); assay: Postemergence herbicidal activity, corn; conditions: rate of application 0.3 Kg/Ha, rated after 12-17 days

Row | Compound | PREEMERGENCE HERBICIDAL ACTIVITY (% CONTROL) ABUTH [1] [%] | Postemergence herbicidal activity (% control) IPOSS [2] [%] | PREEMERGENCE HERBICIDAL ACTIVITY (% CONTROL) SOY [3] [%] | Postemergence herbicidal activity (% control) ABUTH [4] [%] | PREEMERGENCE HERBICIDAL ACTIVITY (% CONTROL) ALOMY [5] [%] | PREEMERGENCE HERBICIDAL ACTIVITY (% CONTROL) CRN [6] [%] | PREEMERGENCE HERBICIDAL ACTIVITY (% CONTROL) WHT [7] [%] | Postemergence herbicidal activity (% control) ALOMY [8] [%] | Postemergence herbicidal activity (% control) XANPE [9] [%] | PREEMERGENCE HERBICIDAL ACTIVITY (% CONTROL) SETVI [10] [%] | PREEMERGENCE HERBICIDAL ACTIVITY (% CONTROL) SORHA [11] [%] | Postemergence herbicidal activity (% control) STEME [12] [%] | Postemergence herbicidal activity (% control) SETVI [13] [%] | PREEMERGENCE HERBICIDAL ACTIVITY (% CONTROL) IPOSS [14] [%] | PREEMERGENCE HERBICIDAL ACTIVITY (% CONTROL) XANPE [15] [%] | Postemergence herbicidal activity (% control) WHT [16] [%] | Postemergence herbicidal activity (% control) SORHA [17] [%] | PREEMERGENCE HERBICIDAL ACTIVITY (% CONTROL) STEME [18] [%] | Postemergence herbicidal activity (% control) SOY [19] [%] | Postemergence herbicidal activity (% control) CRN [20] [%]
1 | Cc1nc2c(-n3c(=O)cc(C(F)(F)F)n(C)c3=O)c(F)cc(Cl)c2o1 [Compound 1] | 100 | 100 | 100 | 100 | 90 | 90 | 85 | 70 | 100 | 100 | 95 | 90 | 80 | 100 | 100 | 65 | 80 | 100 | 95 | 80
2 | Cc1nc2c(-n3c(=O)cc(C(F)(F)F)n(C)c3=O)c(F)cc(Br)c2o1 [Compound 16] | 100 | 100 | 100 | 100 | 80 | 90 | 70 | 70 | 95 | 100 | 95 | 70 | 80 | 100 | 90 | 60 | 80 | 100 | 95 | 80
3 | CCc1nc2c(-n3c(=O)cc(C(F)(F)F)n(C)c3=O)c(F)cc(Cl)c2o1 [Compound 25] | 100 | 100 | 100 | 100 | 90 | 100 | 100 | 80 | 100 | 100 | 100 | 100 | 100 | 100 | 95 | 80 | 90 | 100 | 100 | 90
4 | CNC(=O)OC(C)c1cc2c(Cl)cc(F)c(-n3c(=O)cc(C(F)(F)F)n(C)c3=O)c2o1 (centres unmarked) [Compound 249] | 100 | 100 | 100 | 100 | 80 | 95 | 80 | 100 | 100 | 10 | 100 | 100 | 100 | 100 | 90 | 80 |  | 100 | 95 | 100
5 | Cn1c(C(F)(F)F)cc(=O)n(-c2ccc(Cl)c3cc(-c4ccccc4)oc23)c1=O [Compound 264] | 20 | 40 | 0 | 40 | 0 | 10 | 0 | 0 | 30 | 10 | 10 | 0 |  | 0 | 30 | 20 | 20 | 20 | 50 | 50
